By IC50 is commonly meant the concentration that gives 50% inhibition.

This test concerns the target T1, Human M4 (Homo sapiens, UniProt P08173).
T1 construct: expressed in transfected cells; host or cells: CHO-K1 (ATCC), co-transfected with chimeric G protein Gqi5
T1 sequence (P08173 1-479): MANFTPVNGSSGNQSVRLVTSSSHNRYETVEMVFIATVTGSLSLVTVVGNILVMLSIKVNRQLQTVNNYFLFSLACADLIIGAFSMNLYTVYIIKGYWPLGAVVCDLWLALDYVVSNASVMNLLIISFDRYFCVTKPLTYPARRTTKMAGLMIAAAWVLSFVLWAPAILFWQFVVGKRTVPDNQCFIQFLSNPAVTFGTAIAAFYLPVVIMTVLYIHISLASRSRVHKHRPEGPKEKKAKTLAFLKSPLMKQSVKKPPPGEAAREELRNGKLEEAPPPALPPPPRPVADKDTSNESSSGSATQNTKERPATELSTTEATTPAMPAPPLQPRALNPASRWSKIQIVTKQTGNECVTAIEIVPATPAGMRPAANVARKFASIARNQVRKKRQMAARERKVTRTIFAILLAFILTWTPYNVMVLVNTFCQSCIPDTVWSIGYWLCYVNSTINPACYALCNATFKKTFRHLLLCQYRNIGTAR
Put plainly: mAChR M4 cell-based functional assay (calcium flux, antagonism of EC80 acetylcholine response). The settings on record: M4/Gqi5/CHO-K1 cells; for remaining activity at 30 µM: % ACh maximum at 30 μM, read-out: Human M4 Emin (% ACh maximum at 30 μM); for IC50: concentration-dependent decrease of the response elicited by an EC80 concentration of acetylcholine. The procedure, abridged:
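CHO-K1 cells stably expressing human M4 with chimeric Gqi5, Fluo-4 loaded; calcium flux read on FDSS. Compound (10-point, 1:3 series) added first, then EC20 acetylcholine at 143 s and EC80 at 268 s. IC50 from concentration-dependent decrease of EC80 response, four-parameter logistic fit.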
In general terms: Calcium assays in cells follow changes in intracellular calcium, usually with a dye or a luminescent sensor.

On to `CCNC(=O)c1ccc(-c2ccc(N[C@H]3C[C@@H]4CN(CC5CCOCC5)C[C@@H]4C3)nn2)cc1` [Compound A51, N-ethyl-4-(6-(((3aR,5s,6aS)-2-((tetrahydro-2H-pyran-4-yl)methyl)octahydrocyclopenta[c]pyrrol-5-yl)amino)pyridazin-3-yl)benzamide], for which the remaining activity at 30 µM stood at 3% and the 50% inhibitory concentration (IC50) came out at 2.1 nM.
Turning to `[2H]C([2H])([2H])C(=O)Nc1cccc(-c2ccc(N[C@H]3C[C@@H]4CN(C([2H])([2H])C5CCOCC5)C[C@@H]4C3)nn2)c1` [Compound A62, N-(3-(6-(((3aR,5s,6aS)-2-((tetrahydro-2H-pyran-4-yl)methyl-d2)octahydrocyclopenta[c]pyrrol-5-yl)amino)pyridazin-3-yl)phenyl)acetamide-2,2,2-d3], the remaining activity at 30 µM was determined as 3% and the half-maximal inhibitory concentration (IC50) is 13 nM.
The corresponding values for `[2H]C([2H])([C@@H]1CCCOC1)N1C[C@H]2C[C@H](Nc3ccc(-c4cccc(C(=O)NC)c4)nn3)C[C@H]2C1` [Compound A79, N-methyl-3-(6-(((3aR,5s,6aS)-2-(((S)-tetrahydro-2H-pyran-3-yl)methyl-d2)octahydrocyclopenta[c]pyrrol-5-yl)amino)pyridazin-3-yl)benzamide] are 5% and 92 nM.
On the same counts, the results for `CN(C)C(=O)c1ccc(-c2ccc(N[C@H]3C[C@@H]4CN(CC5CCOCC5)C[C@@H]4C3)nn2)c(F)c1` [Compound A37, 3-fluoro-N,N-dimethyl-4-(6-(((3aR,5s,6aS)-2-((tetrahydro-2H-pyran-4-yl)methyl)octahydrocyclopenta[c]pyrrol-5-yl)amino)pyridazin-3-yl)benzamide] are 5% and 14 nM.
In the case of `CCC(=O)Nc1ccc(-c2ccc(N[C@H]3C[C@@H]4CN(CC5CCOCC5)C[C@@H]4C3)nn2)cc1` [Compound A39, N-(4-(6-(((3aR,5s,6aS)-2-((tetrahydro-2H-pyran-4-yl)methyl)octahydrocyclopenta[c]pyrrol-5-yl)amino)pyridazin-3-yl)phenyl)propionamide], the remaining activity at 30 µM was found to be 3% and the IC50 is 3.1 nM.
Consider `[2H]C([2H])([C@H]1CCCOC1)N1C[C@H]2C[C@H](Nc3ccc(-c4cccc(C(=O)NC)c4)nn3)C[C@H]2C1` [Compound A78, N-methyl-3-(6-(((3aR,5s,6aS)-2-(((R)-tetrahydro-2H-pyran-3-yl)methyl-d2)octahydrocyclopenta[c]pyrrol-5-yl)amino)pyridazin-3-yl)benzamide], for which the remaining activity at 30 µM amounted to 8% and the IC50 came to 570 nM.
On the same counts, the results for `O=C(c1ccc(-c2ccc(N[C@H]3C[C@@H]4CN(CC5CCOCC5)C[C@@H]4C3)nn2)cc1)N1CCCCC1` [Compound A22, piperidin-1-yl(4-(6-(((3aR,5s,6aS)-2-((tetrahydro-2H-pyran-4-yl)methyl)octahydrocyclopenta[c]pyrrol-5-yl)amino)pyridazin-3-yl)phenyl)methanone] are 4% and 21 nM.
The corresponding values for `NC(=O)c1ccc(-c2ccc(N[C@H]3C[C@@H]4CN(CC5CCOCC5)C[C@@H]4C3)nn2)c(F)c1` [Compound A36, 3-fluoro-4-(6-(((3aR,5s,6aS)-2-((tetrahydro-2H-pyran-4-yl)methyl)octahydrocyclopenta[c]pyrrol-5-yl)amino)pyridazin-3-yl)benzamide] are 4% and 5.1 nM.
On the same counts, the results for `CCC(=O)Nc1ccccc1-c1ccc(N[C@H]2C[C@@H]3CN(CC4CCOCC4)C[C@@H]3C2)nn1` [Compound A44, N-(2-(6-(((3aR,5s,6aS)-2-((tetrahydro-2H-pyran-4-yl)methyl)octahydrocyclopenta[c]pyrrol-5-yl)amino)pyridazin-3-yl)phenyl)propionamide] are 4% and 67 nM.

The values are drawn from patent US20240228468A1, “N-(6-((OCTAHYDROCYCLOPENTA[C]PYRROL-5-YI)AMINO)PYRIDAZIN-3-YL)PHENYL)CARBOXAMIDE AND (6- ((OCTAHYDROCYCLOPENTA[C]PYRROL-5-YL)AMINO)PYRIDAZIN-3-YL)BENZAMIDE DERIVATIVES AS MACHR M4 ANTAGONISTS FOR THE TREATMENT OF NEURODEGENERATIVE DISORDERS” (Vanderbilt University, priority 2021, published 2024).
